Test results reported in PMC12024912, “Druggability Studies of Benzene Sulfonamide Substituted Diarylamide (E3) as a Novel Diuretic” (Biomedicines, 2025).

Tests used:
[1] = Liver homogenate metabolic stability, mouse; assay type: in vitro ADME
Method: (§1) Plasma from mice, rats, rabbits, and humans was obtained from blood after centrifugation at 3000 r/min for 10 min. Simulated gastric fluid (SGF, pH = 1, containing pepsin) and simulated intestinal fluid (SIF, pH = 6.8, containing trypsin) were configured previously in the experiments. SD rats and mice were collected, and after removing the mucus layer from the small intestine and colon, 20 times the volume of liquid bacterial culture medium was added. An intestinal microbiota suspension was obtained after anaerobic cultivation on a shaking table at 37 °C for 12 h. In the aforementioned systems, E3 was added at a final concentration of 1 μmol/L at 37 °C for different incubation times (0, 10, 20, 30, 60, 120, and 240 min). In liver metabolic stability assays, E3 was incubated with liver microsomes or liver homogenate from mice or rats for 60 min at 37 °C. The stop solution, 5 ng/mL tolbutamide (internal standard, IS) in acetonitrile, was added to stop the metabolic process. Post-centrifugation (18,000× g, 10 min, 4 °C), supernatants were subjected to liquid chromatography–tandem mass spectrometry (LC–MS/MS). Analyte-to-IS peak area ratios quantified residual percentages via Equation (2):Remaining% = (E3peak area/ISpeak area at different time)/(E3peak area/ISpeak area at 0 min) × 100%.(2)

mice [2] = assay: Acute oral toxicity test in mice; assay type: in vivo
Method: (§2) The acute oral toxicity test was performed according to “Guidance on Single Dose Toxicity Study for Pharmaceuticals” (2014), “Guidance for industry: single dose acute toxicity testing for pharmaceuticals” (1996). The initial dose for preliminary trials was established at 5000 mg/kg. A total of three female and three male mice were utilized (one of each sex for preliminary experiments and two for subsequent experiments). Following a 12 h fasting period, one male and one female mouse were selected and administered E3. After 24 h of confirming survival and the absence of abnormal behavior, the remaining four animals were given the same dose. The control group was given solvent (0.5% CMC-Na). Observations of all animals on the day of dosing (d 0) and in the days following were recorded, including general conditions (signs of toxicity, onset of symptoms, recovery period), changes in body weight, and mortality. After 14 d, blood and vital organ tissues were collected, and serum biochemical indicators as well as histopathological examinations were conducted.

[3] = Acute oral toxicity test in mice; assay type: in vivo; conditions: both sexes, mouse, in vivo, 5000 mg/kg; mice; oral; 14-day acute toxicity assay
Method: as §2

[4] = system: rat hyponatremia model caused by SIADH; assay: Rat hyponatremia model caused by SIADH (dDAVP); assay type: in vivo
Method: The protocol for dDAVP-induced hyponatremia was adapted from a previous study, with tolvaptan chosen as the positive control. Preliminary experiments determined the dose of dDAVP (0.25 ng/h). Under isoflurane anesthesia, a 0.5 μg/mL dDAVP solution was injected subcutaneously using an osmotic minipump (ALZET 2002, Cupertino, CA, USA; 200 μL, low rate of 0.5 μL/h for […]). Rats were housed individually in metabolic cages to collect urine. Before using the pump, they were given 62.5 mL/d 1.0 kcal/mL of liquid food. After pump implantation, the rats received 40 mL of 2.1 kcal/mL of liquid feed daily. The rats were divided into five groups: control group (sham operation), model group (0.5% poloxamer, solvent), 4 mg/kg tolvaptan group, 4 mg/kg E3 group, and 20 mg/kg E3 group. E3 was administered orally every 8 h, while tolvaptan was given intragastrically once daily. At the end of the experiment, the rats were sacrificed.

[5] = Intestinal microbiota stability (colon and small intestine), rats and mice together; assay type: in vitro ADME, SD rats and mice; conditions: after 4 h
Method: as §1

mice [6] = assay: Mouse sperm malformation assay; conditions: mouse, in vivo, po, 2000 mg/kg/day
Method: Male mice were randomly divided into three groups: control group (0.5% CMC-Na), E3 2000 mg/kg group, and positive group (50 mg/kg cyclophosphamide (CP), administered via intraperitoneal injection). E3 and the control group were administered once daily by intragastric gavage. All mice received treatment for 5 consecutive days. After the initial dosing period, […], the mice were euthanized, and evaluation of sperm parameters was performed as follows:
Caudal epididymides were dissected into fragments in physiological saline and incubated (37 °C, 5% CO2, 10 min). Spermatozoa were isolated through nylon mesh filtration. Semen parameters were quantified using computer-assisted semen analysis (CASA). Eosin-stained smears (20 μL sperm suspension) were analyzed to examine sperm morphology. […] Sperm shape abnormalities, such as banana, headless, without a hook, amorphous, double-tailed, and fat head, were identified and counted. In addition, the testis was reserved for morphological analysis. The spermatogenesis was graded from 1 to 10 using the Johnsen score.

[7] = Stability in simulated gastric fluid (SGF) and simulated intestinal fluid (SIF); assay type: in vitro ADME; conditions: 1 μmol/L; 37 °C; after 4 h
Method: as §1

[8] = Intestinal microbiota stability, rat; assay type: in vitro ADME; conditions: Sprague-Dawley
Method: as §1

Blood stability, rat = assay type: in vitro ADME; conditions: plasma, n=3
Method: as §1

[9] = SIADH rats, E3 4 or 20 mg/kg every 8 h, tolvaptan 4 mg/kg once daily, vs model rats

In the case of `CC(=O)c1ccc(C(=O)Nc2cccc(NS(=O)(=O)c3ccccc3)c2)o1` [Compound E3, 5-acetyl-N-(3-(phenylsulfonamido)phenyl)furan-2-carboxamide], the “CLhep, mouse liver homogenate” value ([1]; calculated with 45 mg/g liver, 50 g liver/kg) is reported as 99.3 mL/min/kg, the remaining at 1 h ([1]; mouse, liver homogenate, 60 min incubation, 37 °C, n=3) is reported as 39.8% and the Brain organ index (mice [2]; female mice, 5g/kg, n=3) is reported as 1.72±0.10%. It also gave a Kidney organ index (mice [2]; female mice, 5g/kg, n=3) of 1.06±0.02%, a Liver organ index (mice [2]; female mice, 5g/kg, n=3) of 4.86±0.08% and a Lung organ index (mice [2]; female mice, 5g/kg, n=3) of 0.73±0.04%. It also gave an Ovary organ index (mice [2]; female mice, 5g/kg, n=3) of 0.11±0.02%, a Spleen organ index (mice [2]; female mice, 5g/kg, n=3) of 0.4±0.01% and a Thymus organ index (mice [2]; female mice, 5g/kg, n=3) of 0.27±0.06%. For the same compound, the Uterus organ index (mice [2]; female mice, 5g/kg, n=3) was 0.3±0.02%, the Brain organ index (mice [2]; male mice, 5g/kg, n=3) was 1.35±0.01% and the Epididymis organ index (mice [2]; male mice, 5g/kg, n=3) was 0.17±0.01%. For the same compound, the Kidney organ index (mice [2]; male mice, 5g/kg, n=3) was 1.26±0.02%, the Liver organ index (mice [2]; male mice, 5g/kg, n=3) was 5.16±0.12% and the Lung organ index (mice [2]; male mice, 5g/kg, n=3) was 0.72±0.02%. It also gave a Spleen organ index (mice [2]; male mice, 5g/kg, n=3) of 0.37±0.02%, a Testis organ index (mice [2]; male mice, 5g/kg, n=3) of 0.73±0.02% and a Thymus organ index (mice [2]; male mice, 5g/kg, n=3) of 0.25±0.01%. For the same compound, the “H&E staining of heart, kidney, liver, spleen, and brain” value (mice [2]; mouse, in vivo, po, 5000 mg/kg) was “no apparent abnormalities”, the organ indexes (mice [2]; mouse, in vivo, po, 5000 mg/kg) was “no significant difference” and the “representative blood biochemical indicators” value (mice [2]; mouse, in vivo, po, 5000 mg/kg) was “not statistically altered”. For the same compound, the LD50 at 14 d [3] was > 5000 mg/kg, the “hyponatremia in SIADH rats” value ([4]; E3 4 or 20 mg/kg orally every 8 h, tolvaptan 4 mg/kg once daily, vs model) was “significantly alleviated” and the serum osmolality [4, 9] was “significantly increased”. The serum sodium concentration [4, 9] was “significantly increased”, the blood urea levels ([4]; SIADH rats, between experimental groups before and after treatment) was “no significant difference” and the “H&E staining of kidney and liver” value ([4]; SIADH rats, except dilatation of collecting ducts) was “normal tissue structures”. For the same compound, the “E3 remaining with intestinal microbiota (colon and small intestine)” value [5] was “over 82%”, the “testicular tissue, H&E staining” value (mice [6]) was “no significant differences” and the “E3 remaining in SGF (pH 1.0) and SIF (pH 6.8)” value [7] was “More than 90%”. It also gave a remaining at 1 μmol/L ([8]; colon microbiota suspension, n=3, read-out: Rat colon microbiota (remaining %)) of 82.3%, a remaining at 1 μmol/L ([8]; small intestine microbiota suspension, n=3, read-out: Rat small intestine microbiota (remaining %)) of 87.4% and a remaining at 1 μmol/L (Blood stability, rat) of 46.8%.
